According to US8084261B2, “Method for predicting responsiveness to a pharmaceutical therapy for obesity” (priority 2007, dated 2011):

Key:
TRL V6 = test: Cross therapeutic target rat study: reduction of circulating TRL V6 concentration after an acute dose (NMR LipoProfile); type: in vivo, DIO-LE rats; details: for Reduction in TRL V6 Response T1-(ie 2 hrs) / Reduction in TRL V6 Response T2-(ie 5 hrs) / Reduction in TRL V6 Response T3-(ie 18 hrs): DIO-LE rats on high fat chow, acute dose as in the Dose column; for Reduction in TRL V6 Response T1-(ie 2 hrs): T1 (ie 2 hrs) post dose; for Reduction in TRL V6 Response T2-(ie 5 hrs): T2 (ie 5 hrs) post dose; for Reduction in TRL V6 Response T3-(ie 18 hrs): T3 (ie 18 hrs) post dose; for reduction of circulating concentration of TRL V6 / time by which TRL V6 plasma concentration returns to baseline / reduction of circulating TRL V6 concentration: SNDRI 3 mg/kg; for time by which TRL V6 plasma concentration returns to baseline: post dose
Method: As a typical example, whole blood samples are collected into 2 ml EDTA blood collection tubes, inverted several times to mix well, and placed on ice. The samples are then centrifuged at approximately 3000 rpm for 10-15 minutes at 4° C. Upon completion of centrifugation, the tube is placed on ice and the plasma is drawn off The plasma is place into a polypropylene tube and kept at 4° C. until analysis. Samples may be analyzed at any time up to about 4 days after collection. Samples are analyzed for TRL V6 response, as for example by NMR plasma lipoprotein analysis, as for example, the NMR LipoProfile®, the NMR LipoProfile®-II or the NMR LipoProfile®-III lipoprotein tests provided by LipoScience, Inc. of Raleigh, N.C.
The ability of investigational weight loss pharmaceutical agents to reduce the TRL V6 concentration in rats is shown with three compounds targeting different mechanisms of action including a known potent and selective 5-HT2C receptor agonist, a known potent and selective CB-1 receptor antagonist/inverse agonist, and a potent SNDRI (sibutramine) Each of these compounds are known to induce weight loss in rats and thus the biomarker of reduction in TRL V6 concentration correlates to the investigational weight loss pharmaceutical agents' ability to induce weight loss. Conversely, an opiate antagonist, (naltrexone) which is known to be ineffective in inducing weight loss in rats or in overweight and obese human subjects (Malcolm R et al., Int. J. Obes. 1985; 9(5):347-53), is shown to not reduce the TRL V6 concentration in rats, again correlating the biomarker of reduction in TRL V6 concentration to the investigational weight loss pharmaceutical agents' ability to induce weight loss.
DIO-LE rats maintained on a high fat chow are administered either a vehicle dose or an acute dose of test compound. At specified time points post dose, animals are sacrificed and blood is collected in blood sample tubes containing EDTA and processed essentially as described above. Samples are analyzed by NMR LipoProfile® lipoprotein sub-particle test with report of all particle subtypes (specifically the TRL V6 concentration or particle number).

[1] = test system: large triglyceride rich lipoprotein subclasses; test: Human study with sibutramine: TRL response (AUC 5-11 hr) to fat load versus placebo, NMR LipoProfile; type: in vivo
Method: Note that where TRL V6 response can be equated with the response of a combination of subtypes, it is because the magnitude of the change in signal, which is due to the change of TRL V6 signal, is sufficiently large compared to the base line signal, to be a significant difference (i.e. the signal from TRL V6 in the base line signal dominates the combined signal so that a change in TRL V6 is reliably detected).
A SNDRI (sibutramine) known to be able to induce weight loss in humans is tested to correlate its ability to reduce TRL V6 response plasma concentrations and V-TRL response in humans in an exploratory biomarker study employing a single-blind, crossover design, comparing sibutramine and placebo in hypertriglyceridemic and overweight and obese but otherwise healthy subjects.
Three cohorts containing 6 subjects each, undergo three periods during the study. Subjects are fasted overnight and two fasting blood draws are obtained, followed by breakfast at approximately 07:00 hours. Placebo or sibutramine is administered at approximately 10:00 hours. Blood sampling is begun approximately 1 hr. after the start of breakfast and continues at hourly intervals for 7 hr., and then every 2 hr. for the next 10 hr. A lunch according to Example fat load 2 is served at approximately 12:00 hours (approximately 60 to 65 g of fat). No other food is permitted until 12 hr. post fat load administration. Subjects are released after the last blood sampling for a 4 to 8-day washout period before return for the second testing period of the study. After the washout period, subjects are again fasted overnight. The procedures are then repeated as in the first testing period of the study except that each subject crosses over to receive the alternate treatment, sibutramine or placebo. Blood samples are collected, processed and analyzed essentially as described in Example 1 above.
TRL V6 responses and V-TRL responses are observed during the period from 5 to 11 hr. post fat load. […] In most subjects, the administration of sibutramine reduced the magnitude of the TRL V6 response and V-TRL response compared to their placebo-treated responses. Thus the reduction of the TRL V6 response and V-TRL response induced by the SNDRI correlates with the SNDRI known ability to induce weight loss in humans.

[2] = rats, 2 hr. post dose, 5-HT2C agonist 10 mg/kg, naltrexone 10 mg/kg oral
[3] = rats, 5-HT2C agonist 10 mg/kg, CB-1 antagonist 0.3 mg/kg, naltrexone 10 mg/kg oral
[4] = AUC 5-11 hr. time points from lipid load
[5] = AUC 5-11 hr. time points from lipid load, chylomicrons
[6] = versus placebo, 5-11 hr. post fat load
[7] = rats, 5 hr. post dose, CB-1 antagonist 0.3 mg/kg

## O=C1CC[C@@]2(O)[C@H]3Cc4ccc(O)c5c4[C@@]2(CCN3CC2CC2)[C@H]1O5 [Naltrexone, naltrexone]
TRL V6
  Reduction in TRL V6 Response T1-(ie 2 hrs): 30%
  Reduction in TRL V6 Response T2-(ie 5 hrs): 0%
  Reduction in TRL V6 Response T3-(ie 18 hrs): 0%
TRL V6; rats, 10 mg/kg oral, 18 hr. post dose
  TRL V6 level at 18 hr. post dose (in words): unchanged
TRL V6; rats, 10 mg/kg orally administrated dose
  effect on circulating TRL V6 levels (in words): minimal effect
TRL V6; [2]
  reduction of circulating concentration of TRL V6: 30%
TRL V6; [3]
  time by which TRL V6 plasma concentration returns to baseline: 5 h

## CC(C)CC(N(C)C)C1(c2ccc(Cl)cc2)CCC1 (stereo not drawn) [Sibutramine, sibutramine]
[1]; AUC 5-11 hr. post fat load, mixed effects model, average of treated arms
  decrease in the TRL V6 response versus placebo: about 28%
[1]; [4]
  Geometric LS Mean of AUC, analyte TRL V5: 222.34
  Geometric LS Mean of AUC, analyte TRL V6: 119.35
  Geometric LS Mean of AUC, analytes TRL V6 + Chy: 205.0
  Geometric LS Mean of AUC, analytes TRL V6 + TRL V5: 364.08
  Geometric LS Mean of AUC, analytes TRL V6 + V5 + Chy: 458.04
  Sibutramine/Placebo Ratio of AUC, analyte TRL V5: 1.10
  Sibutramine/Placebo Ratio of AUC, analyte TRL V6: 0.73
  Sibutramine/Placebo Ratio of AUC, analytes TRL V6 + Chy: 0.81
  Sibutramine/Placebo Ratio of AUC, analytes TRL V6 + TRL V5: 0.88
  Sibutramine/Placebo Ratio of AUC, analytes TRL V6 + V5 + Chy: 0.89
[1]; [5]
  Geometric LS Mean of AUC, analyte Chy: 81.11
  Sibutramine/Placebo Ratio of AUC, analyte Chy: 0.98
[1]; [6]
  change in mean V-TRL response (in words): statistically significant decrease
  change in plasma concentrations of TRL V1, V2, V3, V4, or V5 subtypes (in words): does not show a significant change
TRL V6
  Reduction in TRL V6 Response T1-(ie 2 hrs): 78%
  Reduction in TRL V6 Response T2-(ie 5 hrs): 78%
  Reduction in TRL V6 Response T3-(ie 18 hrs): 0%
TRL V6; [2]
  reduction of circulating concentration of TRL V6: about 78%
TRL V6; rats, 2 hr. post dose
  reduction of circulating TRL V6 concentration: about 78%
TRL V6; [7]
  reduction of circulating TRL V6 concentration: about 78%
  reduction of circulating concentration of TRL V6: about 78%
TRL V6; [3]
  time by which TRL V6 plasma concentration returns to baseline: about 18 hr
